Data on four compounds can be found in ChEMBL document CHEMBL1201862, “PubChem BioAssay data set” (2004).

Each structure is given as a SMILES string.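 Each compound was tested at five concentrations against cells in 96-well plates for 48 hours. The concentration for 50% growth inhibition is given as GI50.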 Activity calls are given as the source filed them. Cut-off read from the data, not from the text of the source: active = GI50 up to about 1.1 µM and inactive = higher.

Among the test systems are NCI-H460; T47D; RXF 393; MDA-MB-231; SF-295; NCI-H522; SK-MEL-2; OVCAR-3; SN12C; NCI-H226; SK-OV-3; CCRF-CEM; SF-539; SW-620; MDA-N; MOLT-4; TK-10; OVCAR-5; Hs-578T; HCC 2998.
Common to all, as to assay: growth of human tumour cells (NCI), 48 h

As for `CCOC(=O)c1[nH]c(-c2[nH]c(-c3[nH]c(-c4[nH]c(C(=O)OCC)c(C)c4C(=O)OCC)c(C(=O)OCC)c3C)c(C)c2C(=O)OCC)c(C(=O)OCC)c1C`, the GI50 in the experiment with NCI-H460, in the experiment on T47D, with RXF 393, with MDA-MB-231, with SF-295 and in the experiment on NCI-H522 was > 100 µM (inactive) each time. Also, the GI50 in the experiment with SK-MEL-2, in the experiment with OVCAR-3, in the experiment on SN12C, in the experiment with NCI-H226, with SK-OV-3 and in the experiment with CCRF-CEM was > 100 µM (inactive) each time. Besides, the GI50 in the experiment with SF-539, with SW-620, with MDA-N, with MOLT-4, in the experiment with TK-10 and in the experiment on OVCAR-5 was > 100 µM (inactive) each time. In addition, the GI50 with Hs-578T and with HCC 2998 was > 100 µM (inactive) each time.

`CCOC(=O)CCc1ccc(NC(=O)/C=C/c2ccc([N+](=O)[O-])o2)cc1`: the GI50 with NCI-H460 was 2.34 µM (inactive); in the experiment with T47D, 3.24 µM (inactive); with RXF 393, 0.794 µM (active); in the experiment on MDA-MB-231, 1.8 µM (inactive); in the experiment with SF-295, 3.48 µM (inactive); in the experiment with NCI-H522, 0.287 µM (active). Besides, the GI50 with SK-MEL-2 was 2.06 µM (inactive); in the experiment with OVCAR-3 it was 0.61 µM (active); with SN12C, 1.43 µM (inactive); in the experiment on NCI-H226, 4.34 µM (inactive); in the experiment with SK-OV-3 it was 9.12 µM (inactive); with CCRF-CEM it was 0.177 µM (active). Further, the GI50 in the experiment on SF-539 is 1.72 µM (inactive); with SW-620 it was 0.547 µM (active); in the experiment on MDA-N it was 0.807 µM (active); in the experiment on MOLT-4, 0.22 µM (active); with TK-10 it was 1.48 µM (inactive); with OVCAR-5, 2.34 µM (inactive). Besides, the figures for the GI50 with Hs-578T and in the experiment on HCC 2998 were 3.16 µM (inactive) and 2.69 µM (inactive), respectively.

`CC1=NN(C(=O)c2ccccc2O)C(c2ccccc2Cl)C1C(=O)Nc1ccccc1` (stereo not given): the GI50 is 0.0964 µM (active) with NCI-H460; 0.0435 µM (active) in the experiment on T47D; 0.0553 µM (active) in the experiment on RXF 393; 0.647 µM (active) in the experiment on MDA-MB-231; 0.0975 µM (active) in the experiment on SF-295; 0.119 µM (active) in the experiment on NCI-H522. The GI50 with SK-MEL-2 was 4.74 µM (inactive); in the experiment on OVCAR-3, 0.143 µM (active); with SN12C it was 0.0224 µM (active); with NCI-H226, 0.0614 µM (active); in the experiment on SK-OV-3 it was 10.9 µM (inactive); in the experiment with CCRF-CEM it was 0.0288 µM (active). Further, the GI50 is < 0.0298 µM (active) in the experiment with SF-539; 0.388 µM (active) in the experiment with SW-620; < 0.0205 µM (active) in the experiment on MDA-N; < 0.0302 µM (active) with MOLT-4; 3.1 µM (inactive) with TK-10; 0.458 µM (active) in the experiment with OVCAR-5. Further, the GI50 was < 0.01 µM (active) in the experiment on Hs-578T and 2.84 µM (inactive) with HCC 2998.

For the compound `CC(=C(C(=O)O)C(=O)O)c1cc(-c2cccs2)cc(-c2ccc(Cl)cc2)c1O`, the GI50 in the experiment with NCI-H460 was 17.1 µM (inactive); in the experiment on T47D, 6.68 µM (inactive); in the experiment on RXF 393, 14 µM (inactive); with MDA-MB-231, 18.2 µM (inactive); in the experiment on SF-295, 17.9 µM (inactive); in the experiment with NCI-H522, 14.3 µM (inactive). The GI50 is 32.4 µM (inactive) in the experiment with SK-MEL-2; 14.9 µM (inactive) in the experiment on OVCAR-3; 15.9 µM (inactive) with SN12C; 21.2 µM (inactive) in the experiment on NCI-H226; 33.7 µM (inactive) in the experiment on SK-OV-3; 18.7 µM (inactive) in the experiment on CCRF-CEM. Further, the GI50 with SF-539 is 14.6 µM (inactive); in the experiment with SW-620, 18.7 µM (inactive); in the experiment on MDA-N it was 16.3 µM (inactive); in the experiment with MOLT-4 it was 6.41 µM (inactive); in the experiment on TK-10, 16.2 µM (inactive); with OVCAR-5 it was 29.4 µM (inactive). Also, the GI50 is > 42.7 µM (inactive) in the experiment with Hs-578T and 18.5 µM (inactive) in the experiment on HCC 2998.
